Results: patent publication US11180499B2, “Phosphodiesterase inhibitors” (BOARD OF REGENTS OF THE UNIVERSITY OF NEBRASKA, priority 2018, dated 2021)

Tests used:
PDE4D = target: T1, PDE4D (Homo sapiens, UniProt Q08499); assay: In vitro PDE4 inhibition study, PDE4D (BPS Bioscience); type: binding; settings: values in parentheses
T1 construct: purchased BPS Bioscience, San Diego
Protocol: (§1) The IC50 values of Compound 8 on PDE4 isoforms were determined by BPS Bioscience, San Diego. In brief, coat proteins (PDE4 isoforms) were added into the plate in a volume of 50 μl (2-5 ng/μl) at 4° C. overnight. The next day, Compound 8 was added to the coated plate with varying concentrations followed by addition of the corresponding biotinylated binding partner. The reaction was incubated for 2 hours at room temperature. Binding assays were performed in duplicate at each concentration and the plates were read by using Synergy 2 BioTek plate reader. The luminescence data were analyzed using the Graphpad Prism. […] Data for a reference compounds or antibodies are included as a control for inhibition. “ND” indicates the compound was not tested.

PDE4B = target: T2, PDE4B (Homo sapiens, UniProt Q07343); assay: In vitro PDE4 inhibition study, PDE4B (BPS Bioscience); type: binding; settings: for inhibition at 10 µM: values in parentheses
T2 construct: purchased BPS Bioscience, San Diego
T2 sequence (Q07343 whole entry): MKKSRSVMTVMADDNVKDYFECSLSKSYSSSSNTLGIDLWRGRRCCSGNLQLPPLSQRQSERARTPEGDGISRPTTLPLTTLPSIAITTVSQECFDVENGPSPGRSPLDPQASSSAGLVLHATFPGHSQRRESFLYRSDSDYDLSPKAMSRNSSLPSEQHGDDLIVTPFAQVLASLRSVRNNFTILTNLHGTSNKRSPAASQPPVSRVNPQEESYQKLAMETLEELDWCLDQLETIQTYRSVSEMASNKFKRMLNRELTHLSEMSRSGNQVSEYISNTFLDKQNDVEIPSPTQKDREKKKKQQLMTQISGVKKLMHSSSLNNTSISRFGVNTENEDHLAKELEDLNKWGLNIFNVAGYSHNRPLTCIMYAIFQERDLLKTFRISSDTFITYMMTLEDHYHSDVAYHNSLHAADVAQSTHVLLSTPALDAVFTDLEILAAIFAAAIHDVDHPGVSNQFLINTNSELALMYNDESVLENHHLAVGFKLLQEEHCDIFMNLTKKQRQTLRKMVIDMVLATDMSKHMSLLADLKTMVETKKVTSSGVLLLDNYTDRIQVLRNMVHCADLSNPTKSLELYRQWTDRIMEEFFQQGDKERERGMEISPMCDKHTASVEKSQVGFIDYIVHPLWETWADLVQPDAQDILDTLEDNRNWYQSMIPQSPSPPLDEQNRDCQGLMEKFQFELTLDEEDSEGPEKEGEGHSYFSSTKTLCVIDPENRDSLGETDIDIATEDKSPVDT
Protocol: as §1

T1 sequence (Q08499 whole entry): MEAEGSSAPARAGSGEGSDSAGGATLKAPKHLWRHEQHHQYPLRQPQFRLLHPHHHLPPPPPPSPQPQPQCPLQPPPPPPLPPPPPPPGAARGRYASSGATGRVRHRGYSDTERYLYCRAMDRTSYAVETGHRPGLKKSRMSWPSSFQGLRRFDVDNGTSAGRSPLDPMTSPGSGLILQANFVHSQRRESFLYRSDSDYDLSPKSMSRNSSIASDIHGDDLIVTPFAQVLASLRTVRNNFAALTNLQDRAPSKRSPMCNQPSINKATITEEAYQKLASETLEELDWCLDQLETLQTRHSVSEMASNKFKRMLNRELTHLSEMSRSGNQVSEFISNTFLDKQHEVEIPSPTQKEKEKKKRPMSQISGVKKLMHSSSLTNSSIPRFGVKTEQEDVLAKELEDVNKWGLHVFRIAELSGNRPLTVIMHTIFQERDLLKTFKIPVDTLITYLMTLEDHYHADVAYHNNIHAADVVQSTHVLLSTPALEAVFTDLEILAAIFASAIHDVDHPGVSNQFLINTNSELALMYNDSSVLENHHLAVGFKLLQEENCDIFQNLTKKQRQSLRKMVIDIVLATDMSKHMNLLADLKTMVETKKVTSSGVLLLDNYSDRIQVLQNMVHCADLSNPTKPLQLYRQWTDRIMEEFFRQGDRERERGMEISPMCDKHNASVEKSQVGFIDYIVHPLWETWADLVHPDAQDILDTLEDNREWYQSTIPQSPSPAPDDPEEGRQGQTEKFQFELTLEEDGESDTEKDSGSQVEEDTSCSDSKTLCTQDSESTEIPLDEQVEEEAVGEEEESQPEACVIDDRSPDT

inhibition at 10 µM (PDE4D) [%]	IC50 (PDE4B) [µM]	inhibition at 10 µM (PDE4B) [%]	Compound
77	0.23		O=C(c1cc2cccnc2n1-c1ccc(Cl)c(Cl)c1)N1CC(F)C1 [Compound 7, (1-(3,4-dichlorophenyl)-1H-pyrrolo[2,3-b]pyridin-2-yl)(3-fluoroazetidin-1-yl)methanone]
	0.11		O=C(c1cc2cccnc2n1-c1ccc(Cl)c(Cl)c1)N1CCC1 [Compound 6, Azetidin-1-yl(1-(3,4-dichlorophenyl)-1H-pyrrolo[2,3-b]pyridin-2-yl)methanone]
43	2.3		Cc1ccc(-n2c(C(=O)NC3CCC3)cc3cccnc32)cc1Cl [Compound 17, 1-(3-chloro-4-methylphenyl)-N-cyclobutyl-1H-pyrrolo[2,3-b]pyridine-2-carboxamide]
10.1	2.9		O=C(NC1CC1)c1cc2cccnc2n1-c1ccc(Cl)cc1 [Compound 31, 1-(4-chlorophenyl)-N-cyclopropyl-1H-pyrrolo[2,3-b]pyridine-2-carboxamide]
	0.49		COc1ncc(-n2c(C(=O)N3CC(F)C3)cc3cccnc32)cc1Cl [Compound 39, (1-(5-chloro-6-methoxypyridin-3-yl)-1H-pyrrolo[2,3-b]pyridin-2-yl)(3-fluoroazetidin-1-yl) methanone]
12.1		58	N#Cc1c(F)cc(-n2c(C(=O)NC3CC(F)C3)cc3cccnc32)cc1F (stereo not drawn) [Compound 28, 1-(4-cyano-3,5-difluorophenyl)-N-(3-fluorocyclobutyl)-1H-pyrrolo[2,3-b]pyridine-2-carboxamide]
29		50	O=C(c1cc2cccnc2n1-c1ccc(Cl)c(Cl)c1)N1CCC2(CCC2)CC1 [Compound 12, (1-(3,4-dichlorophenyl)-1H-pyrrolo[2,3-b]pyridin-2-yl)(7-azaspiro[3.5]nonan-7-yl) methanone]
39	1.3		O=C(NC1CCC1)c1cc2cccnc2n1-c1ccc(Cl)c(F)c1 [Compound 34, 1-(4-chloro-3-fluorophenyl)-N-cyclobutyl-1H-pyrrolo[2,3-b]pyridine-2-carboxamide]
18		47	N#Cc1c(F)cc(-n2c(C(=O)NC3CC(F)(F)C3)cc3cccnc32)cc1F [Compound 29, 1-(4-cyano-3,5-difluorophenyl)-N-(3,3-difluorocyclobutyl)-1H-pyrrolo[2,3-b]pyridine-2-carboxamide]
62	0.21		O=C(c1cc2cccnc2n1-c1cc(F)c(Cl)c(F)c1)N1CC(F)C1 [Compound 25, (1-(4-chloro-3,5-difluorophenyl)-1H-pyrrolo[2,3-b]pyridin-2-yl)(3-fluoroazetidin-1-yl) methanone]
	0.98		O=C(c1cc2cccnc2n1-c1ccc(Cl)c(Cl)c1)N1CCC2(CCC2)C1 [Compound 13, (1-(3,4-dichlorophenyl)-1H-pyrrolo[2,3-b]pyridin-2-yl)(6-azaspiro[3.4]octan-6-yl) methanone]
24	0.97		O=C(NC1CC1)c1cc2cccnc2n1-c1ccc(Cl)c(F)c1 [Compound 33, 1-(4-chloro-3-fluorophenyl)-N-cyclopropyl-1H-pyrrolo[2,3-b]pyridine-2-carboxamide]
	0.98		O=C(c1cc2cccnc2n1-c1ccnc(F)c1)N1CC(F)C1 [Compound 41, (3-fluoroazetidin-1-yl)(1-(2-fluoropyridin-4-yl)-1H-pyrrolo[2,3-b]pyridin-2-yl)methanone]
53	1.4		O=C(NC1CC1)c1cc2cccnc2n1-c1cc(F)c(Cl)c(F)c1 [Compound 21, 1-(4-chloro-3,5-difluorophenyl)-N-cyclopropyl-1H-pyrrolo[2,3-b]pyridine-2-carboxamide]
24	1.1		O=C(NC1CCC1)c1cc2cccnc2n1-c1ccc(Cl)c(Cl)c1 [Compound 2, N-cyclobutyl-1-(3,4-dichlorophenyl)-1H-pyrrolo[2,3-b]pyridine-2-carboxamide]
60	0.91		Cc1ccc(-n2c(C(=O)N3CC(F)C3)cc3cccnc32)cc1Cl [Compound 20, (1-(3-chloro-4-methylphenyl)-1H-pyrrolo[2,3-b]pyridin-2-yl)(3-fluoroazetidin-1-yl) methanone]
13		33	O=C(c1cc2cccnc2n1-c1ccc(Cl)c(Cl)c1)N1CC2(CCNCC2)C1 [Compound 15, (1-(3,4-dichlorophenyl)-1H-pyrrolo[2,3-b]pyridin-2-yl)(2,7-diazaspiro[3.5]nonan-2-yl) methanone]
36	0.6		O=C(NC1CC(F)C1)c1cc2cccnc2n1-c1ccc(Cl)c(Cl)c1 (stereo not drawn) [Compound 3, 1-(3,4-Dichlorophenyl)-N-(3-fluorocyclobutyl)-1H-pyrrolo[2,3-b]pyridine-2-carboxamide]
71	0.61		O=C(c1cc2cccnc2n1-c1ccc(Cl)c(F)c1)N1CC(F)C1 [Compound 37, (1-(4-chloro-3-fluorophenyl)-1H-pyrrolo[2,3-b]pyridin-2-yl)(3-fluoroazetidin-1-yl) methanone]
	0.41		COc1c(F)cc(-n2c(C(=O)N3CC(F)C3)cc3cccnc32)cc1F [Compound 42, (1-(3,5-difluoro-4-methoxyphenyl)-1H-pyrrolo[2,3-b]pyridin-2-yl)(3-fluoroazetidin-1-yl) methanone]
52		70	O=C(NCc1ccco1)c1cc2cccnc2n1-c1ccc(Cl)c(Cl)c1 [Compound 5, 1-(3,4-dichlorophenyl)-N-(furan-2-ylmethyl)-1H-pyrrolo[2,3-b]pyridine-2-carboxamide]
11.6		23	O=C(NC1CC(F)(F)C1)c1cc2cccnc2n1-c1ccc(Cl)c(Cl)c1 [Compound 4, 1-(3,4-dichlorophenyl)-N-(3,3-difluorocyclobutyl)-1H-pyrrolo[2,3-b]pyridine-2-carboxamide]
37		67	COc1ccc(-n2c(C(=O)N3CC(F)C3)cc3cccnc32)cc1 [Compound 38, (3-fluoroazetidin-1-yl)(1-(4-methoxyphenyl)-1H-pyrrolo[2,3-b]pyridin-2-yl)methanone]
28.2	5		O=C(NC1CCC1)c1cc2cccnc2n1-c1ccc(Cl)cc1 [Compound 32, 1-(4-chlorophenyl)-N-cyclobutyl-1H-pyrrolo[2,3-b]pyridine-2-carboxamide]
39		73	O=C(c1cc2cccnc2n1-c1ccc(Cl)c(Cl)c1)N1CCCC2(CCO2)C1 (stereo not drawn) [Compound 10, (1-(3,4-dichlorophenyl)-1H-pyrrolo[2,3-b]pyridin-2-yl)(1-oxa-6-azaspiro[3.5]nonan-6-yl)methanone]
17		39	O=C(c1cc2cccnc2n1-c1ccc(Cl)c(Cl)c1)N1CCS(=O)(=O)CC1 [Compound 11, (1-(3,4-dichlorophenyl)-1H-pyrrolo[2,3-b]pyridin-2-yl)(1,1-dioxidothiomorpholino) methanone]
10.7	1.3		O=C(NC1CCC1)c1cc2cccnc2n1-c1cc(F)c(Cl)c(F)c1 [Compound 22, 1-(4-chloro-3,5-difluorophenyl)-N-cyclobutyl-1H-pyrrolo[2,3-b]pyridine-2-carboxamide]

Compound	inhibition at 10 µM (PDE4D) [%]	IC50 (PDE4B) [µM]	inhibition at 10 µM (PDE4B) [%]
N#Cc1c(F)cc(-n2c(C(=O)NC3CCC3)cc3cccnc32)cc1F [Compound 27, 1-(4-cyano-3,5-difluorophenyl)-N-cyclobutyl-1H-pyrrolo[2,3-b]pyridine-2-carboxamide]	16.6	1.8	
N#Cc1c(F)cc(-n2c(C(=O)NC3CC3)cc3cccnc32)cc1F [Compound 26, 1-(4-cyano-3,5-difluorophenyl)-N-cyclopropyl-1H-pyrrolo[2,3-b]pyridine-2-carboxamide]	18.5	1.4	
O=C(c1cc2cccnc2n1Cc1ccc(Cl)c(Cl)c1)N1CC(F)C1 [Compound 43, (1-(3,4-dichlorobenzyl)-1H-pyrrolo[2,3-b]pyridin-2-yl)(3-fluoroazetidin-1-yl)methanone]	58		72
N#Cc1c(F)cc(-n2c(C(=O)N3CC(F)C3)cc3cccnc32)cc1F [Compound 30, 2,6-difluoro-4-(2-(3-fluoroazetidine-1-carbonyl)-1H-pyrrolo[2,3-b]pyridin-1-yl)benzonitrile]	66	0.43	
